# What was measured:
# [1] = system: AKT transcripts; assay: QPCR analysis of AKT transcripts in melanoma cells; format: cell-based; settings: data not shown
# Description: Given the effect of BI-69A11 on the level of AKT protein, we assessed the possible mechanisms underlying such an effect. First, we assessed whether BI-69A11 affects the level of AKT transcripts. RNA prepared from the melanoma cells, with and without treatment with BI-69A11, was subjected to QPCR analysis.
# [2] = system: NRAS/Ink4a mice; assay: Melanoma development in NRAS/Ink4a mice; format: in vivo
# Experimental: The NRAS/Ink4a mice harbor a Q61K NRAS activating mutation, as is seen in 15% of human melanomas, on an Ink4a-deficient background, which mimics the mutations often seen in this locus (p16) in human melanoma.
# The NRAS/Ink4a mouse develops melanoma with penetrance of about 25-50% which is often accompanied by metastasis to the lymph nodes.
# To examine the effect of BI-69A11 treatment on in vivo melanoma development, BI-69A11 was administered to a cohort of 30 mice twice per week (IP, 0.5 mg/kg), starting at week 28 after NRAS expression. A control group of 30 mice received the control vehicle formulation. In this model, by 28 weeks many mice already developed melanoma. Those were not included in our study which was restricted to animals that have not yet developed melanoma. Nevertheless, in a clinical setting, preventive treatment could be administered prior to tumor development, at a stage where early stages of development had been initiated.
# NRAS expression was induced in NRAS/INK4a mice (time 0) and the mice were maintained for 40 weeks. Starting at 28 weeks, animals received BI-69A11 at 0.5 mg/kg by IP injection twice weekly.
# NRAS expression was induced in NRAS/INK4a mice and 28 weeks later treatment with BI-69A11 was initiated. Internal tumors developed in this model were fibrosarcomas, whereas the skin tumors were melanomas (confirmed by immunostaining with S100 and DCT).
# An additional experimental group included animals from the same melanoma model, albeit, those were treated earlier (after 10 weeks rather than 28).
# [3] = molecular target: Akt1 (Homo sapiens, UniProt P31749); assay: Akt1 inhibition assay using GSK-3 as a substrate (immuno-blotting with anti-phospho-GSK-3α/β); format: biochemical
# Experimental: Here the top 4000 compounds out of 50000 docked compounds were selected using FlexX and Drugscore (BioSolvIT). The top 4000 docked structures were further evaluated and ranked according to Goldscore and Chemscore functions (CSCORE). A list of common 200 compounds was then selected among ranked top 700 compounds according to both scoring functions (FIG. 1B). […] The remaining 100 compounds were experimentally tested up to 30 μM against Akt1. The inhibitory activity was evaluated for the selected compounds by using Z'-LYTE™ kit assay provided by Invitrogen Corporation (19). […] Corning® 384-well low volume plates (20 μl) were used. The fluorescent-enzymatic assay has been performed following the protocol provided by Invitrogen Corporation, using a fluorescent plate reader (Victor2, Perkin-Elmer). […] C) Lineweaver-Burk Km and Km(app) evaluation for Akt1. Each measurement was performed in triplicate. […] The Ki and the Km(app) were calculated at fixed inhibitor concentrations, as reported in the text. All constant values were definitely evaluated by fitting the data to the Lineweaver-Burk plot; D) Akt1 inhibition assay using GSK-3 as a substrate. Comparison of compounds 1 and 2 (Table 1) with H89 at 10 μM. E) Dose response for compound 1. […]
# [4] = molecular target: CHK2 (Homo sapiens, UniProt O96017); assay: Invitrogen SelectScreen Kinase Profiling Service; format: biochemical
# Experimental: In addition to its inhibition of AKT, BI-69A11 was tested for inhibition of additional protein kinases using the Invitrogen SelectScreen Kinase Profiling Service. The Ser/Thr protein kinase, Checkpoint Kinase 2 (CHK2), is an important component in the cellular response to DNA damage. In response to genotoxic stresses such as g-irradiation, which causes double stranded DNA breaks, the Ataxia Telangiectasia Mutated (ATM) protein kinase is activated, which in turn phosphorylates a number of downstream effectors, such as CHK2. Activation of the ATM-CHK2 axis enforces the DNA damage checkpoint response, halting the cell cycle in order to initiate DNA repair.
# To accomplish this, we g-irradiated vehicle- or BI69A11-treated cells and examined ATM and CHK2 phosphorylation, a well-characterized surrogate of activation (FIG. 13). In vehicle-treated cells, g-irradiation led to the robust phosphorylation of ATM and CHK2.
# [5] = system: PI3K; assay: Activity of other protein kinases: PI3K; format: biochemical; settings: 100 micro.M
# Description: We recently reported on the direct evaluation of a number of in silico approaches to identify AKT inhibitors (Forino et al., 2005) We achieved experimental validation of selected compounds using both a fluorescence-based enzymatic assay and a substrate phosphorylation assay involving the protein GSK-3 (Forino et al., 2005). Briefly, the virtual docking approach consists of selecting the top 4,000 out of 50,000 docked compounds, using a variety of computational docking approaches, including a consensus score among two different scoring functions (Forino et al., 2005). Of those, 100 compounds were selected based on ranking and favorable docking geometry.
# [6] = IP 0.5 mg/kg twice per week from week 28
# Sequence of Akt1 (P31749 whole entry): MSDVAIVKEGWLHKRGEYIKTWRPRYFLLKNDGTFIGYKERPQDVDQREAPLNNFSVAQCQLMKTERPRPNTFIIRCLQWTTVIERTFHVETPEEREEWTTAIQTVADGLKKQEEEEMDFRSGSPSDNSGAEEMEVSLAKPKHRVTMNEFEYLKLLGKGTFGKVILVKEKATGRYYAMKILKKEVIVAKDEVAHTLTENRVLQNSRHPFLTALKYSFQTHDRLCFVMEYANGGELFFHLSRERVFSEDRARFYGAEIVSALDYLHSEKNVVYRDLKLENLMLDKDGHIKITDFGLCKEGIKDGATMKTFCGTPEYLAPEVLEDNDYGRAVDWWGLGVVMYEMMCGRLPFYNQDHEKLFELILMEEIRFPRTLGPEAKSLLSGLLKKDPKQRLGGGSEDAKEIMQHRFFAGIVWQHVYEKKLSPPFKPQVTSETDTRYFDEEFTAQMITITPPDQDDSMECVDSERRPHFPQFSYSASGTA
# Sequence of CHK2 (O96017 whole entry): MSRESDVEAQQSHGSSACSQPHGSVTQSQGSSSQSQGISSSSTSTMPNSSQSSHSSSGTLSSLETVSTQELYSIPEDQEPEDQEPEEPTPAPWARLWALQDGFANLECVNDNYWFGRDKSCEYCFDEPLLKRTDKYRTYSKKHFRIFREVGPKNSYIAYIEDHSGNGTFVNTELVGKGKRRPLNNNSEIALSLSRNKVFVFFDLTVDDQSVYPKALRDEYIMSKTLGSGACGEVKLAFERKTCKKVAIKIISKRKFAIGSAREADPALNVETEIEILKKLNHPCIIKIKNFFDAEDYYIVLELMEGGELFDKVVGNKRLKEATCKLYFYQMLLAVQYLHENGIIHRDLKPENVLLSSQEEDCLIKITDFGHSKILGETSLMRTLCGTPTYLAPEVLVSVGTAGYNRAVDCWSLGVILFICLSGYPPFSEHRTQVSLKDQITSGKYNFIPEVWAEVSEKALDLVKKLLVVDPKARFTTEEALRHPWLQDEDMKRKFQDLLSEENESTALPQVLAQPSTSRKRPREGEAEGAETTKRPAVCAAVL
compound,measurement,setting,value
"O=C(/C=C/c1nc2ccccc2[nH]1)c1c(O)nc2ccc(Cl)cc2c1-c1ccccc1 [Compound 2, (E)-3-(3-(1H-benzo[d]imidazol-2-yl)acryloyl)-6-chloro-4-phenylquinolin-2(1H)-one]",level of AKT transcripts,[1],did not identify differences
same,inhibition in the fibrosarcoma group,[2]; [6],~50%
same,inhibition of melanomas,[2]; [6],~68%
same,share of the 25 melanomas that developed in the treated group,[2]; [6],32%
same,total number of tumors developed,"[2]; IP 0.5 mg/kg twice per week from week 28, up to 40 weeks, 30 tumors in control group",19
same,number of melanomas,"[2]; IP 0.5 mg/kg twice per week from week 28, control 17",8
same,prevention with administration after 10 weeks compared with after 28 weeks,"[2]; mouse, in vivo",as effective as
same,inhibition of GSK-3 phosphorylation,[3],low micromolar range
same,kinase profiling result for CHK2,[4],possible target
same,effect on PI3K activity,[5],did not affect
